Assay results as given in ChEMBL document CHEMBL1201862, “PubChem BioAssay data set” (2004).
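Grown in 96-well plates, cells were treated for 48 hours with each compound at five concentrations. Insufficient inhibition: endpoint recorded as highest concentration tested. GI50 = concentration required for 50% inhibition of growth.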 The source made the active and inactive calls. Rule as the data show it: active = GI50 up to about 1.1 µM and inactive = higher.

Tests used:
Experiment in all cases: inhibition of tumour cell growth, NCI panel, 48 h
[1] = tested on: SK-MEL-28
[2] = tested on: T47D
[3] = tested on: HOP-92
[4] = tested on: Malme-3M
[5] = tested on: LOX IMVI
[6] = tested on: 786-0
[7] = tested on: A498
[8] = tested on: PC-3
[9] = tested on: SN12C
[10] = tested on: SK-OV-3
[11] = tested on: HOP-62
[12] = tested on: IGROV-1
[13] = tested on: COLO 205
[14] = tested on: K562
[15] = tested on: SW-620
[16] = tested on: EKVX
[17] = tested on: SNB-19
[18] = tested on: Hs-578T
[19] = tested on: HCC 2998
[20] = tested on: SK-MEL-2

Measured: GI50

CC(C)(C)OC(=O)NC(Cc1ccc([N+](=O)[O-])cc1)C(=O)NC(CCCCNC(=O)OCc1ccccc1)C(=O)ON1C(=O)CCC1=O (stereo not given)
inactive: [1] > 100 µM | [2] > 10 µM | [3] > 100 µM | [4] > 100 µM | [5] 28.8 µM | [6] > 100 µM | [7] > 100 µM | [8] 52.5 µM | [9] 70.6 µM | [10] > 100 µM | [11] > 100 µM | [12] > 100 µM | [13] > 100 µM | [14] 14.4 µM | [15] 26.7 µM | [16] > 100 µM | [17] > 100 µM | [18] > 100 µM | [19] 24.4 µM

O=C1NC2(CCNCC2)Oc2ccccc21
inactive: [1] > 100 µM | [2] > 100 µM | [3] > 100 µM | [4] > 100 µM | [5] > 100 µM | [6] > 100 µM | [8] > 100 µM | [9] > 100 µM | [10] > 100 µM | [11] > 100 µM | [12] > 100 µM | [13] > 100 µM | [14] > 100 µM | [15] > 100 µM | [16] > 100 µM | [17] > 100 µM | [18] > 100 µM | [19] > 100 µM | [20] > 100 µM

CC1=CC(=O)c2ccc(C)cc2C1=O [CHIMAPHILIN]
inactive: [1] 6.82 µM | [2] 2.91 µM | [3] 1.85 µM | [5] 5.09 µM | [6] 19.7 µM | [7] 17.6 µM | [8] 11.6 µM | [9] 19.1 µM | [10] 16.9 µM | [11] 17.4 µM | [12] 15.1 µM | [13] 16.3 µM | [14] 3.65 µM | [15] 11.8 µM | [16] 7.1 µM | [17] 16.1 µM | [18] 20.5 µM | [19] 19.8 µM | [20] 16.2 µM

COc1ccc(OC)c2c(C(C)=O)cccc12
inactive: [1] > 100 µM | [2] > 100 µM | [4] > 100 µM | [6] > 100 µM | [7] > 100 µM | [8] > 100 µM | [9] > 100 µM | [10] > 100 µM | [11] > 100 µM | [12] > 100 µM | [13] > 100 µM | [14] > 100 µM | [15] > 100 µM | [16] > 100 µM | [17] > 100 µM | [18] 88.9 µM | [19] > 100 µM

COc1ccc(-c2c(C#N)c(N)n(C3OCC(O)C(O)C3O)c(=S)c2C#N)cc1 (stereo not given)
inactive: [1] > 100 µM | [2] 95.9 µM | [4] > 100 µM | [5] > 100 µM | [6] > 100 µM | [7] > 100 µM | [8] > 100 µM | [9] > 100 µM | [10] > 100 µM | [11] > 100 µM | [12] > 100 µM | [14] > 100 µM | [15] > 100 µM | [17] > 100 µM | [18] > 100 µM | [19] > 100 µM | [20] 21.6 µM

O=C1C(C(O)(C(F)(F)Cl)C(F)(F)Cl)CCCC1C(O)(C(F)(F)Cl)C(F)(F)Cl (stereo not given)
inactive: [1] > 10 µM | [2] > 10 µM | [3] 5.11 µM | [4] > 10 µM | [5] > 10 µM | [6] > 10 µM | [7] > 10 µM | [8] > 10 µM | [10] > 10 µM | [11] > 10 µM | [12] > 10 µM | [13] > 10 µM | [15] > 10 µM | [16] > 10 µM | [17] > 10 µM | [18] > 10 µM | [19] > 10 µM | [20] > 10 µM

NCCCN(CCCCN(CCCN)C(=O)OCc1ccccc1)C(=O)OCc1ccccc1
inactive: [1] > 100 µM | [2] > 100 µM | [3] 29.9 µM | [5] 39.8 µM | [6] > 100 µM | [7] > 100 µM | [8] 45.8 µM | [9] > 100 µM | [10] > 100 µM | [11] > 100 µM | [12] 24.2 µM | [13] > 100 µM | [14] 37.9 µM | [15] > 100 µM | [16] > 100 µM | [17] 81.8 µM | [18] 20.6 µM | [19] 50 µM | [20] > 100 µM

Cc1cc(S(=O)(=O)Nc2nc3ccccc3nc2-c2cccc([N+](=O)[O-])c2)c(S)cc1Cl
inactive: [1] 15.8 µM | [2] 17.2 µM | [3] 17.9 µM | [4] 18.5 µM | [6] 23.8 µM | [7] 14.4 µM | [8] 19.7 µM | [9] 30 µM | [10] 16.6 µM | [11] 20.2 µM | [12] 13.2 µM | [13] 16.3 µM | [14] 26 µM | [16] 22.1 µM | [17] 16.5 µM | [18] 23.6 µM | [19] 18.8 µM | [20] 21.9 µM

CCOC(=O)/C(C(=O)Nc1ccc(Cl)cc1)=C(/N)N1CCOCC1
inactive: [1] > 100 µM | [2] > 100 µM | [4] > 100 µM | [5] > 100 µM | [6] > 100 µM | [7] > 100 µM | [8] > 100 µM | [9] > 100 µM | [10] > 100 µM | [11] > 100 µM | [12] > 100 µM | [13] > 100 µM | [14] > 100 µM | [15] > 100 µM | [16] > 100 µM | [17] > 100 µM | [18] > 100 µM | [19] > 100 µM | [20] > 100 µM

COc1ccc2c(c1)c1c(n2CCN2CCOCC2)-c2ccccc2CC1
inactive: [1] 42.4 µM | [2] 39.5 µM | [3] 46.8 µM | [4] 32.8 µM | [6] 37.4 µM | [7] 32.9 µM | [8] 26.1 µM | [9] 18.8 µM | [10] > 100 µM | [11] 45.4 µM | [12] 37.2 µM | [13] 17.1 µM | [14] 15.3 µM | [15] 32 µM | [18] 18.8 µM | [19] 20.7 µM | [20] 25.4 µM

COc1cc(CC(C)NC(C)=O)cc(OC)c1 (stereo not given)
inactive: [1] > 100 µM | [2] > 100 µM | [4] > 100 µM | [5] > 100 µM | [6] > 100 µM | [7] > 100 µM | [8] > 100 µM | [9] > 100 µM | [10] > 100 µM | [11] > 100 µM | [12] > 100 µM | [13] > 100 µM | [14] > 100 µM | [15] > 100 µM | [17] > 100 µM | [18] > 100 µM | [19] > 100 µM | [20] > 100 µM
